# Assay results as given in patent publication US10428066B2, “Imidazo[4,5-C]pyridine and pyrrolo[2,3-C]pyridine derivatives as SSAO inhibitors” (PROXIMAGEN, LLC, priority 2013, dated 2019).
# Structures can show the parent of a compound that is named as a salt.
# Molecular target: purified recombinantly expressed human SSAO (Homo sapiens (Human), UniProt Q16853)
# Test: SSAO enzyme inhibition assay (HRP-coupled hydrogen peroxide detection or 14C-benzaldehyde detection, benzylamine substrate)
# Assay type: biochemical
# Conditions: human recombinant SSAO, RT
# Procedure: All primary assays were performed at RT. with purified recombinantly expressed human SSAO. Enzyme was prepared essentially as described in Öhman et al. (Protein Expression and Purification 46 (2006) 321-331). In addition, secondary- and selectivity assays were performed using SSAO prepared from various tissues or purified rat recombinant SSAO. The enzyme activity was assayed with benzylamine as substrate by measuring either benzaldehyde production, using ^14C-labeled substrate, or by utilizing the production of hydrogen peroxide in a horseradish peroxidase (HRP) coupled reaction. Briefly, test compounds were dissolved in dimethyl sulfoxide (DMSO) to a concentration of 10 mM. Dose-response measurements were assayed by either creating 1:10 serial dilutions in DMSO to produce a 7 point curve or by making 1:3 serial dilutions in DMSO to produce 11 point curves.
# In a horseradish peroxidase (HRP) coupled reaction, hydrogen peroxide oxidation of 10-acetyl-3,7-dihydroxyphenoxazine produced resorufin, which is a highly fluorescent compound (Zhout and Panchuk-Voloshina. Analytical Biochemistry 253 (1997) 169-174; Amplex® Red Hydrogen Peroxide/peroxidase Assay kit, Invitrogen A22188). Enzyme and compounds in 50 mM sodium phosphate, pH 7.4 were set to pre-incubate in flat-bottomed microtiter plates for approximately 15 min before initiating the reaction by addition of a mixture of HRP, benzylamine and Amplex reagent. Benzylamine concentration was fixed at a concentration corresponding to the Michaelis constant, determined using standard procedures. Fluorescence intensity was then measured at several time points during 1-2 h, exciting at 544 nm and reading the emission at 590 nm. For the human SSAO assay final concentrations of the reagents in the assay wells were: SSAO enzyme 1 ug/ml, benzylamine 100 uM, Amplex reagent 20 uM, HRP 0.1 U/mL and varying concentrations of test compound. The inhibition was measured as % decrease of the signal compared to a control without inhibitor (only diluted DMSO). The background signal from a sample containing no SSAO enzyme was subtracted from all data points. Data was fitted to a four parameter logistic model and IC50 values were calculated using the GraphPad Prism 4 or XLfit 4 programs.
# SSAO activity was assayed using 14C-labeled benzylamine and analysed by measuring radioactive benzaldehyde. In a white 96-well optiplate (Packard), 20 uL of diluted test compound was pre-incubated at room temperature with 20 uL SSAO enzyme for approximately 15 min with continuous agitation. All dilutions were made with PBS. The reaction was initiated by adding 20 uL of the benzylamine substrate solution containing [7-14C] Benzylamine hydrochloride (CFA589, GE Healthcare). The plate was incubated for 1 h as above after which the reaction was stopped by acidification (10 uL 1M aq HCl). Then 90 uL Micro Scint-E solution (Perkin-Elmer) was added to each well and the plate was continuously mixed for 15 min. Phase separation occurred instantly and activity was read in a Topcount scintillation counter (Perkin-Elmer). In the final reaction well, the human recombinant SSAO concentration was 10 ug/ml. In order to optimize sensitivity, the substrate concentration was decreased as compared to the HRP coupled assay in order to get a higher fraction of radioactive product. In the human SSAO assay, benzylamine concentration was 40 uM (0.2 uCi/mL). Data was analysed as above.
# Chain of purified recombinantly expressed human SSAO (Q16853 29-763): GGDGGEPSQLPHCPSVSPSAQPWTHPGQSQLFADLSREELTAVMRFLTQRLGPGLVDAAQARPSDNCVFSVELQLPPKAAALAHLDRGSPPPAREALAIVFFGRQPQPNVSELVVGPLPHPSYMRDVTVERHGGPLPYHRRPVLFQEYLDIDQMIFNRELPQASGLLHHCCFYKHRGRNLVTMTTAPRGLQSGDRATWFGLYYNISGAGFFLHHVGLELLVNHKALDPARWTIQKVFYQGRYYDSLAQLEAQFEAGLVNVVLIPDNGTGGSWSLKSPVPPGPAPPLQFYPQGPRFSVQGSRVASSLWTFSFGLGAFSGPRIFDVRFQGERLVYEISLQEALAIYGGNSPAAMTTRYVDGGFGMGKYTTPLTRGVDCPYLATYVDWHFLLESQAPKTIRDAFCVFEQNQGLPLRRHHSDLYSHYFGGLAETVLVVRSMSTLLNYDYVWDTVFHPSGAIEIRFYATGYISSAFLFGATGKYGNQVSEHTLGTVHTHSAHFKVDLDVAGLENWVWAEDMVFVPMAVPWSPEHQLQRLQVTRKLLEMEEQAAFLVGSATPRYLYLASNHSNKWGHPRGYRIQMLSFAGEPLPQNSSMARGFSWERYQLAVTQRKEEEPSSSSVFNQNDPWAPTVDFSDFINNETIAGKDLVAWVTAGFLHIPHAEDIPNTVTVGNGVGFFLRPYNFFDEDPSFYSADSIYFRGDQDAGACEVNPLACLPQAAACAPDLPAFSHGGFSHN
row,IC50 [nM],Compound
1,200 to 1200,"Nc1ccc(-c2nc3ccncc3n2-c2ccc(Cl)cc2)cn1 [Example 110, 5-[3-(4-Chlorophenyl)-3H-imidazo[4,5-c]pyridin-2-yl]pyridin-2-amine]"
2,200 to 1200,"Fc1cc(Cl)ccc1-n1c(-c2cnc(N3CCOCC3)nc2)nc2ccncc21 [Example 77, 4-{5-[3-(4-Chloro-2-fluorophenyl)-3H-imidazo[4,5-c]pyridin-2-yl]pyrimidin-2-yl}morpholine]"
3,200 to 1200,"Nc1ccc(-c2nc3ccncc3n2-c2ccc(Cl)cc2F)cn1 [Example 105, 5-[3-(4-Chloro-2-fluorophenyl)-3H-imidazo[4,5-c]pyridin-2-yl]pyridin-2-amine]"
4,200 to 1200,"Fc1ccc(-n2c(-c3ccc(N4CCOCC4)nc3)nc3ccncc32)cc1 [Example 54, 4-{5-[3-(4-Fluorophenyl)-3H-imidazo[4,5-c]pyridin-2-yl]pyridin-2-yl}morpholine]"
5,200 to 1200,"Cn1cc(-c2nc3ccncc3n2-c2ccc(Cl)cc2)ccc1=O [Example 33, 5-[3-(4-Chlorophenyl)-3H-imidazo[4,5-c]pyridin-2-yl]-1-methyl-1,2-dihydropyridin-2-one]"
6,200 to 1200,"Fc1ccc(-n2c(-c3cnc(C4CC4)nc3)nc3ccncc32)cc1 [Example 30, 2-Cyclopropyl-5-[3-(4-fluorophenyl)-3H-imidazo[4,5-c]pyridin-2-yl]pyrimidine]"
7,50 to 200,"O=c1cc(-c2nc3ccncc3n2-c2ccc(Cl)cc2F)cc[nH]1 [Example 34, 4-[3-(4-Chloro-2-fluorophenyl)-3H-imidazo[4,5-c]pyridin-2-yl]-1,2-dihydropyridin-2-one]"
8,200 to 1200,"CS(=O)(=O)Nc1ccc(-c2nc3ccncc3n2-c2ccc(Cl)cc2)cn1 [Example 16, N-{5-[3-(4-Chlorophenyl)-3H-imidazo[4,5-c]pyridin-2-yl]pyridin-2-yl}methanesulfonamide]"
9,200 to 1200,"CN1CCN(Cc2cccc(-c3nc4ccncc4n3-c3ccc(Cl)cc3)c2)CC1 [Example 45, 1-({3-[3-(4-Chlorophenyl)-3H-imidazo[4,5-c]pyridin-2-yl]phenyl}methyl)-4-methylpiperazine; formic acid]"
10,50 to 200,"Clc1ccc(-n2c(-c3cncc(Cl)c3)cc3ccncc32)cc1 [Example 150, 3-Chloro-5-[1-(4-chlorophenyl)-1H-pyrrolo[2,3-c]pyridin-2-yl]pyridine]"
11,50 to 200,"Fc1ccc(-n2c(-c3ccnc(N4CCOCC4)c3)nc3ccncc32)cc1 [Example 73, 4-{4-[3-(4-Fluorophenyl)-3H-imidazo[4,5-c]pyridin-2-yl]pyridin-2-yl}morpholine]"
12,50 to 200,"Fc1ccccc1-n1c(-c2cnc(N3CCOCC3)nc2)nc2ccncc21 [Example 60, 4-{5-[3-(2-Fluorophenyl)-3H-imidazo[4,5-c]pyridin-2-yl]pyrimidin-2-yl}morpholine]"
13,50 to 200,"Fc1cc(Cl)ccc1-n1c(-c2ccc(N3CCOCC3)nc2)nc2ccncc21 [Example 80, 4-{5-[3-(4-Chloro-2-fluorophenyl)-3H-imidazo[4,5-c]pyridin-2-yl]pyridin-2-yl}morpholine]"
14,50 to 200,"Fc1ccc(-n2c(-c3ccc(C4CCOCC4)nn3)nc3ccncc32)cc1 [Example 15, 3-[3-(4-Fluorophenyl)-3H-imidazo[4,5-c]pyridin-2-yl]-6-(oxan-4-yl)pyridazine]"
15,200 to 1200,"O=C(NC1CC1)c1ccc(-c2nc3ccncc3n2-c2ccc(Cl)cc2)cn1 [Example 14, 5-[3-(4-Chlorophenyl)-3H-imidazo[4,5-c]pyridin-2-yl]-N-cyclopropylpyridine-2-carboxamide]"
16,50 to 200,"Clc1ccc(-n2c(-c3ccc(-n4cccn4)nc3)cc3ccncc32)cc1 [Example 151, 5-[1-(4-Chlorophenyl)-1H-pyrrolo[2,3-c]pyridin-2-yl]-2-(1H-pyrazol-1-yl)pyridine; bis(trifluoroacetic acid)]"
17,200 to 1200,"Fc1ccc(-n2c(-c3cnc(N4CCOCC4)nc3)nc3ccncc32)c(Cl)c1 [Example 56, 4-{5-[3-(2-Chloro-4-fluorophenyl)-3H-imidazo[4,5-c]pyridin-2-yl]pyrimidin-2-yl}morpholine]"

row,IC50 [nM],Compound
1,200 to 1200,"Cc1ccc(-n2c(-c3ccc(N4CCOCC4)nc3)nc3ccncc32)cn1 [Example 64, 4-{5-[3-(6-Methylpyridin-3-yl)-3H-imidazo[4,5-c]pyridin-2-yl]pyridin-2-yl}morpholine]"
2,50 to 200,"O=c1cc(-c2cc3ccncc3n2-c2ccc(Cl)cc2)cn[nH]1 [Example 146, 5-[1-(4-Chlorophenyl)-1H-pyrrolo[2,3-c]pyridin-2-yl]-2,3-dihydropyridazin-3-one]"
3,50 to 200,"Fc1ccc(-n2c(-c3cnc(N4CCOCC4)c(F)c3)nc3ccncc32)cc1 [Example 98, 4-{3-Fluoro-5-[3-(4-fluorophenyl)-3H-imidazo[4,5-c]pyridin-2-yl]pyridin-2-yl}morpholine]"
4,200 to 1200,"CN1CCN(C(=O)c2ccc(-c3cc4ccncc4n3-c3ccc(Cl)cc3)cc2)CC1 [Example 125, 1-({4-[1-(4-Chlorophenyl)-1H-pyrrolo[2,3-c]pyridin-2-yl]phenyl}carbonyl)-4-methylpiperazine]"
5,200 to 1200,"Clc1ccc(-n2c(-c3csc(N4CCNCC4)n3)nc3ccncc32)cc1 [Example 17, 1-{4-[3-(4-Chlorophenyl)-3H-imidazo[4,5-c]pyridin-2-yl]-1,3-thiazol-2-yl}piperazine dihydrochloride]"
6,50 to 200,"Brc1ccc(-n2c(-c3cnc(N4CCOCC4)nc3)nc3ccncc32)cc1 [Example 59, 4-{5-[3-(4-Bromophenyl)-3H-imidazo[4,5-c]pyridin-2-yl]pyrimidin-2-yl}morpholine]"
7,50 to 200,"Cc1ccc(-n2c(-c3cnc(N4CCOCC4)nc3)nc3ccncc32)cc1 [Example 57, 4-{5-[3-(4-Methylphenyl)-3H-imidazo[4,5-c]pyridin-2-yl]pyrimidin-2-yl}morpholine]"
8,50 to 200,"Cc1ccc(-n2c(-c3cnc(N4CCOCC4)nc3)cc3ccncc32)cc1 [Example 130, 4-{5-[1-(4-Methylphenyl)-1H-pyrrolo[2,3-c]pyridin-2-yl]pyrimidin-2-yl}morpholine]"
9,50 to 200,"CC(C)OCCNc1ncc(-c2nc3ccncc3n2-c2ccc(F)cc2)cn1 [Example 38, 5-[3-(4-Fluorophenyl)-3H-imidazo[4,5-c]pyridin-2-yl]-N-[2-(propan-2-yloxy)ethyl]pyrimidin-2-amine]"
10,50 to 200,"CN1CCN(c2ncc(-c3nc4ccncc4n3-c3ccc(F)cc3)cn2)CC1=O [Example 40, 4-{5-[3-(4-Fluorophenyl)-3H-imidazo[4,5-c]pyridin-2-yl]pyrimidin-2-yl}-1-methylpiperazin-2-one]"
11,50 to 200,"CN1CCN(c2ccc(-c3nc4ccncc4n3-c3ccc(F)cc3)cn2)CC1=O [Example 106, 4-{5-[3-(4-Fluorophenyl)-3H-imidazo[4,5-c]pyridin-2-yl]pyridin-2-yl}-1-methylpiperazin-2-one]"
12,50 to 200,"Clc1ccc(-n2c(-c3ccc(CN4CCOCC4)nc3)nc3ccncc32)cc1 [Example 3, 4-({5-[3-(4-Chlorophenyl)-3H-imidazo[4,5-c]pyridin-2-yl]pyridin-2-yl}methyl)morpholine]"
13,200 to 1200,"CN(C)c1ncc(-c2nc3ccncc3n2-c2ccc(Cl)cc2)cn1 [Example 72, 5-[3-(4-Chlorophenyl)-3H-imidazo[4,5-c]pyridin-2-yl]-N,N-dimethylpyrimidin-2-amine]"
14,200 to 1200,"NC(=O)NC1CCN(c2ccc(-c3nc4ccncc4n3-c3ccc(Cl)cc3)cn2)CC1 [Example 91, (1-{5-[3-(4-Chlorophenyl)-3H-imidazo[4,5-c]pyridin-2-yl]pyridin-2-yl}piperidin-4-yl)urea; bis(trifluoroacetic acid)]"
15,50 to 200,"Fc1ccc(-n2c(-c3cnc(NC4CCOCC4)nc3)nc3ccncc32)cc1 [Example 20, 5-[3-(4-Fluorophenyl)-3H-imidazo[4,5-c]pyridin-2-yl]-N-(oxan-4-yl)pyrimidin-2-amine]"
16,50 to 200,"Cc1ccc(-n2c(-c3cnc(N4C[C@@H](C)O[C@@H](C)C4)nc3)nc3ccncc32)nc1 [Example 36, (2R,6S)-2,6-Dimethyl-4-{5-[3-(5-methylpyridin-2-yl)-3H-imidazo[4,5-c]pyridin-2-yl]pyrimidin-2-yl}morpholine]"
